The test system of this experiment is MV-4-11 cells. The experiment can be described thus: Gene expression microarray analysis (Affymetrix PrimeView) and GSEA. The experiment is classed as cell-based, human. Set-up: RFU PODN (11730768_x_at) / Fold change /veh PODN (11730768_x_at) / RFU LINC00158 (11744669_a_at) / Fold change /veh LINC00158 (11744669_a_at) / RFU DUSP10 (11751237_a_at) / Fold change /veh DUSP10 (11751237_a_at) / RFU ID3 (11757404_x_at) / Fold change /veh ID3 (11757404_x_at) / RFU PLEKHG5 (11737974_s_at) / Fold change /veh PLEKHG5 (11737974_s_at) / RFU LRRC4B (11730491_at) / Fold change /veh LRRC4B (11730491_at) / RFU GIMAP4 (11747438_a_at) / Fold change /veh GIMAP4 (11747438_a_at) / RFU KRT8 (11758183_x_at) / Fold change /veh KRT8 (11758183_x_at) / RFU CNN1 (11734310_a_at) / Fold change /veh CNN1 (11734310_a_at) / RFU VPS37D (11726825_at) / Fold change /veh VPS37D (11726825_at) / RFU C10orf10 (11716522_x_at) / Fold change /veh C10orf10 (11716522_x_at) / RFU KIR2DL2 /// KIR2DL4 /// KIR2DL5A /// KIR2DL5B /// KIR2DS1 /// KIR2DS2 /// KIR2DS3 /// KIR2DS4 /// KIR3DL3 /// KIR3DL3 /// KIR3DS1 (11738374_at) / Fold change /veh KIR2DL2 /// KIR2DL4 /// KIR2DL5A /// KIR2DL5B /// KIR2DS1 /// KIR2DS2 /// KIR2DS3 /// KIR2DS4 /// KIR3DL3 /// KIR3DL3 /// KIR3DS1 (11738374_at) / RFU C1QL1 (11718748_at) / Fold change /veh C1QL1 (11718748_at) / RFU TMPRSS4 (11747572_a_at) / Fold change /veh TMPRSS4 (11747572_a_at) / RFU HAMP (11756126_x_at) / Fold change /veh HAMP (11756126_x_at) / RFU RNFT2 (11725882_a_at) / Fold change /veh RNFT2 (11725882_a_at) / RFU NR4A2 (11747474_a_at) / Fold change /veh NR4A2 (11747474_a_at) / RFU ABCC12 (11746883_a_at) / Fold change /veh ABCC12 (11746883_a_at) / RFU TMEM136 (11760407_x_at) / Fold change /veh TMEM136 (11760407_x_at) / RFU CLDN22 /// WWC2 (11732394_at) / Fold change /veh CLDN22 /// WWC2 (11732394_at) / RFU HLA-DPB1 (11760878_x_at) / Fold change /veh HLA-DPB1 (11760878_x_at) / RFU SPINT1 (11716480_a_at) / Fold change /veh SPINT1 (11716480_a_at) / RFU GAP43 (11754022_s_at) / Fold change /veh GAP43 (11754022_s_at) / RFU A4GNT (11735810_at) / Fold change /veh A4GNT (11735810_at) / RFU PRB3 (11715151_x_at) / Fold change /veh PRB3 (11715151_x_at) / RFU TUBB4B (11761932_at) / Fold change /veh TUBB4B (11761932_at) / RFU CAPN14 (11732068_a_at) / Fold change /veh CAPN14 (11732068_a_at) / RFU TMCC2 (11721928_a_at) / Fold change /veh TMCC2 (11721928_a_at) / RFU IRGQ (11745062_a_at) / Fold change /veh IRGQ (11745062_a_at) / RFU FAM174B (11720279_a_at) / Fold change /veh FAM174B (11720279_a_at) / RFU TMPRSS4 (11748680_a_at) / Fold change /veh TMPRSS4 (11748680_a_at) / RFU FAM212B (11763350_a_at) / Fold change /veh FAM212B (11763350_a_at) / RFU PLEKHG5 (11743358_a_at) / Fold change /veh PLEKHG5 (11743358_a_at) / RFU ZSCAN30 (11745921_a_at) / Fold change /veh ZSCAN30 (11745921_a_at) / RFU CMKLR1 (11741424_a_at) / Fold change /veh CMKLR1 (11741424_a_at) / RFU LOC101060620 /// MAPK8IP1 (11723275_at) / Fold change /veh LOC101060620 /// MAPK8IP1 (11723275_at) / RFU SPTSSB (11747773_x_at) / Fold change /veh SPTSSB (11747773_x_at) / RFU PRSS12 (11739890_at) / Fold change /veh PRSS12 (11739890_at) / RFU BIN1 (11741810_x_at) / Fold change /veh BIN1 (11741810_x_at) / RFU WNT11 (11732464_a_at) / Fold change /veh WNT11 (11732464_a_at) / RFU C10orf10 (11716521_a_at) / Fold change /veh C10orf10 (11716521_a_at) / RFU C5orf56 (11738089_at) / Fold change /veh C5orf56 (11738089_at) / RFU CYB561 (11721691_x_at) / Fold change /veh CYB561 (11721691_x_at) / RFU ANKRD19P (11752326_a_at) / Fold change /veh ANKRD19P (11752326_a_at) / RFU OR2T12 /// OR2T33 /// OR2T8 (11738714_s_at) / Fold change /veh OR2T12 /// OR2T33 /// OR2T8 (11738714_s_at) / RFU VCAN (11748164_a_at) / Fold change /veh VCAN (11748164_a_at) / RFU JSRP1 (11732532_at) / Fold change /veh JSRP1 (11732532_at) / RFU KRTAP10-11 (11738290_x_at) / Fold change /veh KRTAP10-11 (11738290_x_at) / RFU MYO3A (11730013_a_at) / Fold change /veh MYO3A (11730013_a_at) / RFU EBF3 (11725865_a_at) / Fold change /veh EBF3 (11725865_a_at) / RFU CAMK2N1 (11719241_x_at) / Fold change /veh CAMK2N1 (11719241_x_at) / RFU C5orf56 (11738088_a_at) / Fold change /veh C5orf56 (11738088_a_at) / RFU OLFML3 (11715873_a_at) / Fold change /veh OLFML3 (11715873_a_at) / RFU LOC100653217 /// NTM (11731650_a_at) / Fold change /veh LOC100653217 /// NTM (11731650_a_at) / RFU MAPK11 (11762145_a_at) / Fold change /veh MAPK11 (11762145_a_at) / RFU FIZ1 (11724087_x_at) / Fold change /veh FIZ1 (11724087_x_at) / RFU OASL (11726364_x_at) / Fold change /veh OASL (11726364_x_at) / RFU SOX15 (11748057_x_at) / Fold change /veh SOX15 (11748057_x_at) / RFU CD79A (11719716_a_at) / Fold change /veh CD79A (11719716_a_at) / RFU HIST1H1D (11736915_at) / Fold change /veh HIST1H1D (11736915_at) / RFU CASKIN2 (11723855_a_at) / Fold change /veh CASKIN2 (11723855_a_at) / RFU LOC730098 (11760151_x_at) / Fold change /veh LOC730098 (11760151_x_at) / RFU OR4N2 (11742367_at) / Fold change /veh OR4N2 (11742367_at) / RFU PRRT2 (11749266_a_at) / Fold change /veh PRRT2 (11749266_a_at) / RFU SNX32 (11753110_a_at) / Fold change /veh SNX32 (11753110_a_at) / RFU CDHR5 (11726645_a_at) / Fold change /veh CDHR5 (11726645_a_at) / RFU RCAN1 (11760418_a_at) / Fold change /veh RCAN1 (11760418_a_at) / RFU FAM167A (11723789_a_at) / Fold change /veh FAM167A (11723789_a_at) / RFU FAM26E (11764081_at) / Fold change /veh FAM26E (11764081_at) / RFU ISYNA1 (11749810_s_at) / Fold change /veh ISYNA1 (11749810_s_at) / RFU ACY1 (11761880_at) / Fold change /veh ACY1 (11761880_at) / RFU 11764098_at / Fold change /veh 11764098_at / RFU SAMD14 (11745864_x_at) / Fold change /veh SAMD14 (11745864_x_at) / RFU NPB (11741838_a_at) / Fold change /veh NPB (11741838_a_at) / RFU TMPRSS6 (11731388_a_at) / Fold change /veh TMPRSS6 (11731388_a_at) / RFU KRTAP10-2 (11738614_at) / Fold change /veh KRTAP10-2 (11738614_at) / RFU ARHGAP8 /// PRR5-ARHGAP8 (11727945_x_at) / Fold change /veh ARHGAP8 /// PRR5-ARHGAP8 (11727945_x_at) / RFU KRTAP5-7 /// NADSYN1 (11734609_at) / Fold change /veh KRTAP5-7 /// NADSYN1 (11734609_at) / RFU RASL12 (11751679_a_at) / Fold change /veh RASL12 (11751679_a_at) / RFU CDKN2B (11736163_a_at) / Fold change /veh CDKN2B (11736163_a_at) / RFU PRF1 (11729649_at) / Fold change /veh PRF1 (11729649_at) / RFU, ZNF638 /// ZNF638-IT1 / Fold change vs veh, ZNF638 /// ZNF638-IT1 / RFU, PANK3 / Fold change vs veh, PANK3 / RFU, SH3YL1 / Fold change vs veh, SH3YL1 / RFU, ZEB2 / Fold change vs veh, ZEB2 / RFU, NRIP1 / Fold change vs veh, NRIP1 / RFU, PTTG1IP / Fold change vs veh, PTTG1IP / RFU, CAPN2 / Fold change vs veh, CAPN2 / RFU, MED14 / Fold change vs veh, MED14 / RFU, SNORA58 / Fold change vs veh, SNORA58 / RFU, C1orf63 / Fold change vs veh, C1orf63 / RFU, LRRFIP1 / Fold change vs veh, LRRFIP1 / RFU, NDUFAF7 / Fold change vs veh, NDUFAF7 / RFU, SLC12A2 / Fold change vs veh, SLC12A2 / RFU, IBTK / Fold change vs veh, IBTK / RFU, ESF1 / Fold change vs veh, ESF1 / Fold change vs veh, TMEM50B / RFU, TAOK1 / Fold change vs veh, TAOK1 / RFU, ACBD3 / Fold change vs veh, ACBD3 / RFU, TMA16 / Fold change vs veh, TMA16 / RFU, RWDD3 / Fold change vs veh, RWDD3 / RFU, BCAT1 / Fold change vs veh, BCAT1 / RFU, EDEM3 / Fold change vs veh, EDEM3 / RFU, TMEM33 / Fold change vs veh, TMEM33 / RFU, WDR75 / Fold change vs veh, WDR75 / RFU, AHCTF1 / Fold change vs veh, AHCTF1 / RFU, TFRC / Fold change vs veh, TFRC / RFU, ZDHHC17 / Fold change vs veh, ZDHHC17 / RFU, NOM1 / Fold change vs veh, NOM1 / RFU, ARL8B / Fold change vs veh, ARL8B / RFU, ZBTB11 / Fold change vs veh, ZBTB11 / RFU, TAMM41 / Fold change vs veh, TAMM41 / RFU, KIAA1704 /// LOC100996395 / Fold change vs veh, KIAA1704 /// LOC100996395 / RFU, ING1 / Fold change vs veh, ING1 / RFU, TRMT61B / Fold change vs veh, TRMT61B / RFU, FUBP3 / Fold change vs veh, FUBP3 / RFU, TP53 / Fold change vs veh, TP53 / RFU, TNKS2 / Fold change vs veh, TNKS2 / RFU, ZFP14 / Fold change vs veh, ZFP14 / RFU, ACTR2 / Fold change vs veh, ACTR2 / RFU, PPP3R1 / Fold change vs veh, PPP3R1 / RFU, PIK3R1 / Fold change vs veh, PIK3R1 / RFU, HNRNPA1 / Fold change vs veh, HNRNPA1 / RFU, RNF170 / Fold change vs veh, RNF170 / RFU, ZNF28 / Fold change vs veh, ZNF28 / RFU, RNGTT / Fold change vs veh, RNGTT / RFU, OGT / Fold change vs veh, OGT / RFU, BRD1 / Fold change vs veh, BRD1 / RFU, MARS / Fold change vs veh, MARS / RFU, ZNF655 / Fold change vs veh, ZNF655 / RFU, FAHD1 / Fold change vs veh, FAHD1 / RFU, BDP1 / Fold change vs veh, BDP1 / RFU, LRRCC1 / Fold change vs veh, LRRCC1 / RFU, ARID1A / Fold change vs veh, ARID1A / RFU, ZNF146 / Fold change vs veh, ZNF146 / RFU, ZNF330 / Fold change vs veh, ZNF330 / RFU, GPN3 / Fold change vs veh, GPN3 / RFU, C9orf123 / Fold change vs veh, C9orf123 / RFU, N4BP2L2 / Fold change vs veh, N4BP2L2 / RFU, ARFIP1 / Fold change vs veh, ARFIP1 / RFU, FAM179B / Fold change vs veh, FAM179B / RFU, BCL10 / Fold change vs veh, BCL10 / RFU, UHRF1BP1L / Fold change vs veh, UHRF1BP1L / RFU, BET1 / Fold change vs veh, BET1 / RFU, CNOT2 / Fold change vs veh, CNOT2 / RFU, ZNF268 / Fold change vs veh, ZNF268 / Fold change vs veh, ZNF507 / RFU, DGCR2 / Fold change vs veh, DGCR2 / RFU, WDSUB1 / Fold change vs veh, WDSUB1 / Fold change vs veh, HSP90B1 /// MIR3652 / RFU, ADSS / Fold change vs veh, ADSS / RFU, GK / Fold change vs veh, GK / RFU, ZNF148 / Fold change vs veh, ZNF148 / RFU, TAF9 / Fold change vs veh, TAF9 / RFU, SLC1A5 / Fold change vs veh, SLC1A5 / RFU, SLMO2 / Fold change vs veh, SLMO2 / RFU, ABCC4 / Fold change vs veh, ABCC4 / RFU, LOC101060439 /// RAP1B / Fold change vs veh, LOC101060439 /// RAP1B / RFU, RFX7 / Fold change vs veh, RFX7 / RFU, GTPBP10 / Fold change vs veh, GTPBP10 / RFU, CNEP1R1 / Fold change vs veh, CNEP1R1 / RFU, BIVM-ERCC5 /// ERCC5 / Fold change vs veh, BIVM-ERCC5 /// ERCC5 / RFU, ILF3 / Fold change vs veh, ILF3 / RFU 11762660_at / Fold change /veh 11762660_at / RFU VCAN (11757783_s_at) / Fold change /veh VCAN (11757783_s_at) / RFU DDX43 (11728927_at) / Fold change /veh DDX43 (11728927_at) / RFU KRT8 (11758188_x_at) / Fold change /veh KRT8 (11758188_x_at) / RFU NKD1 (11759106_at) / Fold change /veh NKD1 (11759106_at) / RFU SRD5A1 (11742802_a_at) / Fold change /veh SRD5A1 (11742802_a_at) / RFU TPSAB1 /// TPSB2 (11721975_s_at) / Fold change /veh TPSAB1 /// TPSB2 (11721975_s_at) / RFU GSTM3 (11746129_a_at) / Fold change /veh GSTM3 (11746129_a_at) / RFU IL23R (11737362_x_at) / Fold change /veh IL23R (11737362_x_at) / RFU TMEM51 (11727254_a_at) / Fold change /veh TMEM51 (11727254_a_at) / RFU PIWIL2 (11732686_x_at) / Fold change /veh PIWIL2 (11732686_x_at) / RFU ORM1 (11744905_x_at) / Fold change /veh ORM1 (11744905_x_at) / RFU CCDC152 (11743942_at) / Fold change /veh CCDC152 (11743942_at) / RFU ECM1 (11717891_a_at) / Fold change /veh ECM1 (11717891_a_at) / RFU IL23R (11748794_a_at) / Fold change /veh IL23R (11748794_a_at) / RFU TNFAIP8L3 (11732012_x_at) / Fold change /veh TNFAIP8L3 (11732012_x_at) / RFU MBOAT4 (11741988_at) / Fold change /veh MBOAT4 (11741988_at) / RFU 11764193_at / Fold change /veh 11764193_at / RFU TMEM53 (11763286_at) / Fold change /veh TMEM53 (11763286_at) / RFU MAGEB2 (11727129_at) / Fold change /veh MAGEB2 (11727129_at) / RFU TMEM200A (11744735_a_at) / Fold change /veh TMEM200A (11744735_a_at) / RFU CCDC152 (11751479_a_at) / Fold change /veh CCDC152 (11751479_a_at) / RFU FAM211A (11726209_a_at) / Fold change /veh FAM211A (11726209_a_at) / RFU RGS16 (11746705_a_at) / Fold change /veh RGS16 (11746705_a_at) / RFU VCAN (11755009_s_at) / Fold change /veh VCAN (11755009_s_at) / RFU RHOB (11743442_s_at) / Fold change /veh RHOB (11743442_s_at) / RFU RGS16 (11720943_a_at) / Fold change /veh RGS16 (11720943_a_at) / RFU RGS16 (11720944_at) / Fold change /veh RGS16 (11720944_at) / RFU, VPS4B / Fold change vs veh, VPS4B / RFU, CREB1 / Fold change vs veh, CREB1 / RFU, DNAJC13 / Fold change vs veh, DNAJC13 / RFU, GNAQ / Fold change vs veh, GNAQ / RFU, CDK5R1 / Fold change vs veh, CDK5R1 / RFU, ZRANB3 / Fold change vs veh, ZRANB3 / RFU, CUL4A / Fold change vs veh, CUL4A / RFU, CCNY / Fold change vs veh, CCNY / RFU, UFL1 / Fold change vs veh, UFL1 / RFU, COG3 / Fold change vs veh, COG3 / RFU, DIAPH2 / Fold change vs veh, DIAPH2 / RFU, SKA2 / Fold change vs veh, SKA2 / RFU, AFF3 / Fold change vs veh, AFF3 / RFU, LMF1 / Fold change vs veh, LMF1 / RFU, IPO11 / Fold change vs veh, IPO11 / RFU, DFFB / Fold change vs veh, DFFB / RFU, FOXP1 / Fold change vs veh, FOXP1 / RFU, CARD8 / Fold change vs veh, CARD8 / RFU, STRN3 / Fold change vs veh, STRN3 / RFU, ADK / Fold change vs veh, ADK / RFU, RASSF2 / Fold change vs veh, RASSF2 / RFU, WIPF1 / Fold change vs veh, WIPF1 / RFU, LARP1B / Fold change vs veh, LARP1B / RFU, RASA1 / Fold change vs veh, RASA1 / RFU, RB1 / Fold change vs veh, RB1 / RFU, PPFIA1 / Fold change vs veh, PPFIA1 / RFU, MAT2A / Fold change vs veh, MAT2A / RFU, CCT5 / Fold change vs veh, CCT5 / RFU, WDR92 / Fold change vs veh, WDR92 / RFU, CUX1 / Fold change vs veh, CUX1 / RFU, TTC7A / Fold change vs veh, TTC7A / RFU, TMEM135 / Fold change vs veh, TMEM135 / RFU, DEPTOR / Fold change vs veh, DEPTOR / RFU, CPM / Fold change vs veh, CPM / RFU, DNAJB6 / Fold change vs veh, DNAJB6 / RFU, CACNA2D3 / Fold change vs veh, CACNA2D3 / RFU, DTX4 / Fold change vs veh, DTX4 / RFU, TFCP2 / Fold change vs veh, TFCP2 / RFU, GMCL1 /// GMCL1P1 / Fold change vs veh, GMCL1 /// GMCL1P1 / RFU, AEBP2 / Fold change vs veh, AEBP2 / RFU, SNHG1 /// SNORD22 /// SNORD25 /// SNORD26 /// SNORD27 /// SNORD28 /// SNORD29 /// SNORD31 / Fold change vs veh, SNHG1 /// SNORD22 /// SNORD25 /// SNORD26 /// SNORD27 /// SNORD28 /// SNORD29 /// SNORD31 / Fold change (Aza/veh), C12orf56 (ProbeSet 11735607_a_at) / Fold change (ACY-1035/veh), C12orf56 (ProbeSet 11735607_a_at) / Fold change (Aza/veh), FGFR1OP (ProbeSet 11751329_s_at) / Fold change (ACY-1035/veh), FGFR1OP (ProbeSet 11751329_s_at) / Fold change (Aza/veh), VPS36 (ProbeSet 11739960_a_at) / Fold change (ACY-1035/veh), VPS36 (ProbeSet 11739960_a_at) / RFU SYPL1 (11715823_x_at) / Fold change /veh SYPL1 (11715823_x_at) / RFU IGFBP7 (11715501_s_at) / Fold change /veh IGFBP7 (11715501_s_at) / RFU REEP3 (11722064_at) / Fold change /veh REEP3 (11722064_at) / RFU IGLL1 (11728026_x_at) / Fold change /veh IGLL1 (11728026_x_at): dose or concentration left out as unconfirmed. To be noted: MV-4-11 cells, 48 hours.

With `Nc1ncn([C@@H]2O[C@H](CO)[C@@H](O)[C@H]2O)c(=O)n1` [azacitidine], the “Fold change /veh 11764098_at” value was 1.18.

(Values after PMC5218480 (PLoS ONE, 2017).)
